In US10517889B2, “Modulators of SMAD7 expression” (Ionis Pharmaceuticals, Inc., priority 2017, dated 2019):
pIC50: −log10 of the molar value. Where “and” joins values, the source holds several entries; their conditions need not be identical. Equal values may be shown once. Strand notation (5' to 3'): a small letter for the sugar, then the base; units joined by * are phosphorothioate-linked, units joined directly phosphodiester-linked; [ ] holds rarer units or linkages, { } end groups; capitals alone tell only the bases. k = constrained ethyl (cEt); [5mC] = 5-methylcytosine; d = 2'-deoxy (DNA)

Key:
human SMAD7 mRNA [1] = assay: Antisense inhibition of human SMAD7 mRNA expression in Hep3B cells by 3-10-3 cEt gapmers, 10,000 nM, electroporation (Example 2); assay type: cell-based; details: approximately 24 hours
Outline: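 Hep3B cells (20,000/well) were electroporated with 10,000 nM 3-10-3 cEt gapmer (16-mer, phosphorothioate, 5-methylcytosines) and harvested after about 24 h. SMAD7 mRNA quantified by RT-qPCR with primer probe set RTS5062, normalized to total RNA by RiboGreen; percent inhibition relative to untreated cells.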

human SMAD7 mRNA [2] = assay: Dose-dependent inhibition of human SMAD7 mRNA expression in Hep3B cells (Example 3, Study 1 and 2); assay type: cell-based; details: electroporation; for % inhibition of SMAD7 mRNA expression: approximately 16 hours; for pIC50: Study 2 (740-20000 nM)
Outline: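 Hep3B cells, 20,000 per well, electroporated with antisense oligonucleotide at 0.31, 1.25, 5.00 or 20.00 μM (first series) or 0.74, 2.22, 6.67 or 20.00 μM (second series). After ~16 h, SMAD7 mRNA measured by RT-qPCR (RTS5062), normalised to RIBOGREEN total RNA. Percent inhibition vs untreated cells; IC50 derived.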

[3] = Hep3B cells, electroporation with 10,000 nM antisense oligonucleotide, RTS5062, percent inhibition of SMAD7 mRNA relative to untreated control cells
[4] = 740 nM, Study 2, relative to untreated control cells
[5] = Hep3B cells, electroporation, 10,000 nM antisense oligonucleotide, RTS5062, relative to untreated control cells
[6] = Hep3B cells, electroporation with 10,000 nM antisense oligonucleotide, SMAD7 mRNA by RT-PCR (RTS5062), relative to untreated control cells
[7] = Hep3B cells, electroporation with 10,000 nM antisense oligonucleotide, primer probe set RTS5062, relative to untreated control cells
[8] = SMAD7 mRNA, Hep3B cells, 10,000 nM antisense oligonucleotide, electroporation, primer probe set RTS5062, relative to untreated control cells

Substance | % Inhibition (human SMAD7 mRNA [1]; [3]) | % inhibition of SMAD7 mRNA expression (human SMAD7 mRNA [2]; [4]) | % inhibition of SMAD7 mRNA expression (human SMAD7 mRNA [2]; 2220 nM, Study 2) | % inhibition of SMAD7 mRNA expression (human SMAD7 mRNA [2]; 6670.0 nM, Study 2) | % inhibition of SMAD7 mRNA expression (human SMAD7 mRNA [2]; 20000.0 nM, Study 2) | pIC50 (human SMAD7 mRNA [2]) | % inhibition of SMAD7 mRNA expression (human SMAD7 mRNA [1]; [5]) | % Inhibition (human SMAD7 mRNA [1]; [6]) | % Inhibition (human SMAD7 mRNA [1]; Hep3B cells, 10,000 nM antisense oligonucleotide, electroporation, RT-PCR primer probe set RTS5062, relative to untreated control cells) | % inhibition of SMAD7 mRNA expression (human SMAD7 mRNA [1]; [7]) | % Inhibition (human SMAD7 mRNA [1]; [8])
799608 (kA*k[5mC]*kG*dA*dT*d[5mC]*dA*dA*d[5mC]*dT*dT*d[5mC]*dT*kT*kG*kA; antisense) [compound 799608] | 70% | 35% | 56% | 70% | 76% | 5.52 |  |  |  |  | 
799667 (antisense kA*k[5mC]*kA*dG*dA*dT*dG*d[5mC]*d[5mC]*dA*dG*d[5mC]*dA*kA*kG*kG) [compound 799667] | 79% | 8% | 8% | 17% | 47% | 5.05 |  |  |  |  | 
799755 (antisense kG*kA*kA*dA*dG*dT*dT*dA*d[5mC]*dA*dG*dA*dA*k[5mC]*kT*k[5mC]) [compound 799755] |  | 13% | 44% | 66% | 75% | 5.22 | 77% |  |  |  | 
830028 (antisense k[5mC]*kA*kG*dT*d[5mC]*dA*dA*dG*dT*dT*dA*d[5mC]*dA*kG*kT*k[5mC]) [compound 830028] |  | 54% | 70% | 85% | 93% | 5.52 |  | 75% |  |  | 
799410 (antisense kT*k[5mC]*kT*dG*dT*dT*dT*dA*d[5mC]*dA*d[5mC]*dA*d[5mC]*kA*kT*kT) [compound 799410] |  | 26% | 42% | 64% | 74% | 5.70 |  | 79% |  |  | 
799543 (kT*k[5mC]*kA*dA*dA*dT*dG*d[5mC]*dA*dT*dG*dA*dG*kT*kT*kA; antisense) [compound 799543] |  | 13% | 26% | 61% | 75% | 5.30 | 65% |  |  |  | 
799369 (antisense kA*k[5mC]*kT*d[5mC]*dA*d[5mC]*dT*dA*dA*dG*dT*d[5mC]*dT*k[5mC]*k[5mC]*kG) [compound 799369] |  | 1% | 10% | 46% | 74% | 5.22 |  | 50% |  |  | 
798823 (kA*k[5mC]*kA*dG*dT*dA*dG*dA*dG*d[5mC]*d[5mC]*dT*d[5mC]*k[5mC]*k[5mC]*k[5mC]; antisense) [compound 798823] |  | 27% | 27% | 63% | 70% | < 4.70 |  |  | 74% |  | 
799564 (k[5mC]*kA*kG*dA*dT*dA*dA*d[5mC]*dA*dG*dA*dG*dT*kA*kT*kA; antisense) [compound 799564] | 70% | 13% | 41% | 60% | 73% | 5.52 |  |  |  |  | 
830067 (kG*kA*kA*dA*dT*dG*dG*dT*dG*d[5mC]*dT*d[5mC]*dT*kG*k[5mC]*k[5mC]; antisense) [compound 830067] |  | 23% | 59% | 80% | 88% | 5.00 |  | 63% |  |  | 
799404 (antisense kG*kG*kA*dA*d[5mC]*dA*dT*dT*dT*dA*d[5mC]*d[5mC]*d[5mC]*k[5mC]*kT*kG) [compound 799404] |  | 15% | 39% | 42% | 59% | 5.70 |  |  |  | 68% | 
799759 (antisense kA*k[5mC]*k[5mC]*dA*dT*dA*dT*d[5mC]*dA*d[5mC]*dT*d[5mC]*d[5mC]*kT*kT*k[5mC]) [compound 799759] |  | 22% | 44% | 45% | 66% | 5.70 | 66% |  |  |  | 
800048 (antisense kT*kG*kG*dA*dA*dA*dG*dG*dA*dA*dG*dA*d[5mC]*kT*k[5mC]*kG) [compound 800048] |  | 0% | 31% | 58% | 58% | 5.40 |  | 64% |  |  | 
799565 (kA*kG*kT*dA*dA*dA*d[5mC]*dA*dA*dT*dA*d[5mC]*d[5mC]*k[5mC]*kT*k[5mC]; antisense) [compound 799565] | 79% | 23% | 49% | 67% | 86% | 4.96 |  |  |  |  | 
799365 (k[5mC]*kT*k[5mC]*d[5mC]*dG*dA*dG*dT*dT*dA*dT*d[5mC]*d[5mC]*k[5mC]*k[5mC]*kA; antisense) [compound 799365] |  | 11% | 39% | 73% | 94% | 5.40 |  |  |  | 61% | 
799967 (kG*kA*k[5mC]*dG*dA*dT*dG*dA*dA*dT*d[5mC]*d[5mC]*dT*kG*kG*k[5mC]; antisense) [compound 799967] |  | 0% | 0% | 0% | 20% | 5.05 |  | 72% |  |  | 
799321 (antisense kA*kT*k[5mC]*dT*dG*dG*dA*d[5mC]*dA*dG*dT*d[5mC]*dT*kG*k[5mC]*kT) [compound 799321] |  | 0% | 5% | 36% | 67% | > 6.15 | 93% |  |  |  | 
799566 (kG*kA*kG*dT*dA*dA*dA*d[5mC]*dA*dA*dT*dA*d[5mC]*k[5mC]*k[5mC]*kT; antisense) [compound 799566] | 74% | 0% and 10% | 32% and 64% | 63% and 82% |  | 5.70 and 6.00 |  |  |  |  | 89%
772858 (kA*kG*kT*dG*dT*dT*d[5mC]*dA*dA*d[5mC]*dA*dA*dT*kG*k[5mC]*kT; antisense) [compound 772858] |  | 7% | 26% | 29% | 51% | < 4.70 |  |  |  |  | 62%
